Experimental data published in patent publication US20100029689A1, “PHOSPHODIESTERASE 4 INHIBITORS” (MEMORY PHARMACEUTICALS CORPORATION, priority 2008, published 2010).

Biological target: T1, hPDE-4D6 (Homo sapiens, UniProt Q08499)
T1 construct: made in house; host or cells: Sf9 insect cells (baculovirus)
Assay: In vitro measurement of type 4 phosphodiesterase inhibition activity (hPDE-4D6, [3H]cAMP/alumina column assay)
Format: biochemical
Settings: recombinant hPDE-4D6 from Sf9 cell lysate, 3 uM cAMP, 12 min, room temperature; read-out: PDE4D6 IC50
Method: Human PDE4 was obtained from baculovirus-infected Sf9 cells that expressed the recombinant enzyme. The cDNA encoding hPDE-4D6 was subcloned into a baculovirus vector.
Insect cells (Sf9) were infected with the baculovirus and cells were cultured until protein was expressed. The baculovirus-infected cells were lysed and the lysate was used as source of hPDE-4D6 enzyme. The enzyme was partially purified using a DEAE ion exchange chromatography. This procedure can be repeated using cDNA encoding other PDE-4 enzymes.
Type 4 phosphodiesterases convert cyclic adenosine monophosphate (cAMP) to 5′-adenosine monophosphate (5′-AMP). Nucleotidase converts 5′-AMP to adenosine. Therefore the combined activity of PDE4 and nucleotidase converts cAMP to adenosine. Adenosine is readily separated from cAMP by neutral alumina columns. Phosphodiesterase inhibitors block the conversion of cAMP to adenosine in this assay; consequently, PDE4 inhibitors cause a decrease in adenosine.
Cell lysates (40 ul) expressing hPDE-4D6 were combined with 50 ul of assay mix and 10 μl of inhibitors and incubated for 12 min at room temperature. Final concentrations of assay components were: 0.4 ug enzyme, 10 mM Tris-HCl (pH 7.5), 1 mM MgCl2, 3 uM cAMP, 0.002 U 5′-nucleotidase, and 3×10^4 cpm of [3H]cAMP. The reaction was stopped by adding 100 μl of boiling 5mN HCl. An aliquot of 75 μl of reaction mixture was transferred from each well to alumina columns (Multiplate; Millipore). Labeled adenosine was eluted into an OptiPlate by spinning at 2000 rpm for 2 min; 150 μl per well of scintillation fluid was added to the OptiPlate. The plate was sealed, shaken for about 30 min, and cpm of [^3H]adenosine was determined using a Wallac Triflux®.
All test compounds are dissolved in 100% DMSO and diluted into the assay such that the final concentration of DMSO is 0.1%.
A decrease in adenosine concentration is indicative of inhibition of PDE activity. […] Nonlinear regression software (Assay Explorer@) was used to estimate pIC50 values.

T1 sequence (Q08499 1-518 isoform Q08499-8): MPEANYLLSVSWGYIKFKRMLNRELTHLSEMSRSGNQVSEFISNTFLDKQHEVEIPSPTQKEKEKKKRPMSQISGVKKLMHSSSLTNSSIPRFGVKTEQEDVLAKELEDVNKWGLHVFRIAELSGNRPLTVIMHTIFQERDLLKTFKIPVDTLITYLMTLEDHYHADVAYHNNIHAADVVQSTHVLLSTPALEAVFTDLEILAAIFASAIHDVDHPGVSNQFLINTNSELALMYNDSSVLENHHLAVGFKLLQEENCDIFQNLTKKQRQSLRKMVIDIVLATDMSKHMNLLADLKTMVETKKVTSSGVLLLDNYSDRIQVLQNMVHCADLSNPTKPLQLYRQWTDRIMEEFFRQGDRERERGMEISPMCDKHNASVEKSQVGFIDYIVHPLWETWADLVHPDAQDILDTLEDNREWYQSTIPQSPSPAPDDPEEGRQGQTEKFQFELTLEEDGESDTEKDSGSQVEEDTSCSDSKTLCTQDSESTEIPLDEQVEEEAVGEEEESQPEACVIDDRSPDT

| SMILES | IC50 [nM] |
| --- | --- |
| CCOc1cc(N(Cc2cccnc2)c2ccc(C(=O)O)cc2)ccc1OC(F)F [Example 14] | 2.54 |
| COc1ccc(N(Cc2cccnn2)c2ccc(C(=O)O)cc2)cc1OC1CCCC1 [Example 47] | 128 |
| O=C(O)c1ccc(N(Cc2cncs2)c2ccc(OC(F)F)c(OC(F)F)c2)cc1 [Example 59] | 5.69 |
| COc1ccc(N(Cc2cncs2)c2ccc(C(=O)O)cc2)cc1OCC1CC1 [Example 72] | 25.1 |
| O=C(O)c1ccc(N(Cc2cncnc2)c2ccc(OC(F)F)c(OC(F)F)c2)cc1 [Example 80] | 6.17 |
| COc1ccc(N(Cc2cncs2)c2ccc(S(C)(=O)=O)cc2)cc1O[C@@H]1CCOC1 [Example 111] | 29 |
| COc1cc(N(Cc2cncs2)c2cccc(C(=O)O)c2)ccc1OC(F)F [Example 116] | 7 |
| COc1cc(N(Cc2cccnc2)c2ccc(C(=O)O)cc2)ccc1OC(F)F [Example 124] | 11.2 |
| CCOc1cc(N(Cc2cncs2)c2ccc(C(=O)O)cc2)ccc1OC [Example 130] | 8.6 |
| COc1ccc(N(Cc2cncs2)c2ccc(C(=O)O)cc2)cc1OC(C)C [Example 131] | 17.3 |
| O=C(O)Cc1ccc(N(Cc2cncnc2)c2ccc(OC(F)F)c(OC(F)F)c2)cc1 [Example 137] | 139 |
| COc1ccc(N(Cc2cncs2)c2ccc(C(=O)O)cc2)cc1OC [Example 138] | 61 |
| O=C(O)Cc1cccc(N(Cc2cncnc2)c2ccc(OC(F)F)c(OC(F)F)c2)c1 [Example 139] | 53 |
| O=C(O)c1ccc(N(Cc2cnco2)c2ccc(OC(F)F)c(OC(F)F)c2)cc1 [Example 141] | 27 |
| O=C(O)c1ccc(N(Cc2cnccn2)c2ccc(OC(F)F)c(OC(F)F)c2)cc1 [Example 142] | 289 |
| CCOc1cc(N(Cc2cncnc2)c2ccc(C(=O)O)cc2)ccc1OC(F)F [Example 143] | 7.5 |
| O=C(O)c1ccc(N(Cc2cnco2)c2ccc(OC(F)F)c(OC3CCC3)c2)cc1 [Example 182] | 3.8 |
| COc1ccc(N(Cc2cnco2)c2ccc(C(=O)O)cc2)cc1OC1CC1 [Example 189] | 2.3 |
| CCOc1cc(N(Cc2cocn2)c2ccc(C(=O)O)cc2)ccc1OC(F)F [Example 190] | 20 |
| CCOc1cc(N(Cc2cnco2)c2ccc(C(=O)O)cc2)ccc1OC(F)(F)F [Example 217] | 12 |
| COc1ccc(N(Cc2cncnc2)c2cccc(C(=O)O)c2)cc1OC1CC1 [Example 218] | 1.08 |
| CCOc1cc(N(Cc2cnc(C)s2)c2ccc(C(=O)O)cc2)ccc1OC(F)F [Example 225] | 4.38 |
| COc1ccc(N(Cc2cnco2)c2ccc(C(=O)O)cc2)cc1OC(F)(F)F [Example 232] | 6.94 |
| CCOc1cc(N(Cc2cnns2)c2ccc(C(=O)O)cc2)ccc1OC(F)F [Example 281] | 0.16 |
| CCOc1cc(Nc2ccc(C(=O)O)cc2)ccc1OC(F)F [Example 294] | 34.9 |
| O=C(O)c1ccc(Nc2ccc(OC(F)F)c(OC(F)F)c2)cc1 [Example 295] | 108 |

Tested on: rats
Assay: Radial arm maze task in rats, in vivo test for learning and memory
Design: species or system rat
Settings: male Sprague-Dawley rats, 0.1 mg/kg, i.p., compared to control (p<0.01)
Method: The test was performed as previously described (Zhang, H.-T., Crissman, A. M., Dorairaj, N. R., Chandler, L. J., and O'Donnell, J. M., Neuropsychopharmacology, 2000, 23, 198-204.). Five days after initial housing, rats (male Sprague-Dawley (Harlan) weighing 250 to 350 g) were placed in the eight-arm radial maze (each arm was 60×10×12 cm high; the maze was elevated 70 cm above the floor) for acclimation for two days. Rats were then placed individually in the center of the maze for 5 minutes with food pellets placed close to the food wells, and then, the next day, in the wells at the end of the arms; 2 sessions a day were conducted. Next, four randomly selected arms were then baited with one pellet of food each. The rat was restricted to the center platform (26 cm in diameter) for 15 seconds and then allowed to move freely throughout the maze until it collected all pellets of food or 10 minutes passed, whichever came first. Four parameters were recorded: 1) working memory errors, i.e., entries into baited arms that had already been visited during the same trial; 2) reference memory errors, i.e., entries into unbaited arms; 3) total arm entries; and 4) the test duration (seconds), i.e., the time spent in the collection of all the pellets in the maze. […]
(§1) All data were analyzed by analyses of variance (ANOVA); individual comparisons were made using Kewman-Keuls tests. […]

| SMILES | frequencies of working and reference memory errors |
| --- | --- |
| C[C@]12N[C@H](Cc3ccccc31)c1ccccc12 [MK-801] | increased the frequencies of both working and reference memory errors |

Tested on: rats
Assay: Passive avoidance in rats, in vivo test for learning and memory
Design: species or system rat
Settings: male Sprague-Dawley rats, 0.1 mg/kg, 24 hours after electric shock, compared to vehicle (p<0.001)
Method: The test was performed as previously described (Zhang, H.-T., Crissman, A. M., Dorairaj, N. R., Chandler, L. J., and O'Donnell, J. M., Neuropsychopharmacology, 2000, 23, 198-204.). The apparatus (Model E10-16SC, Coulboum Instruments, Allentown, Pa.) consisted of a two-compartment chamber with an illuminated compartment connected to a darkened compartment by a guillotine door. The floor of the darkened compartment consisted of stainless steel rods through which an electric foot-shock could be delivered from a constant current source. All experimental groups were first habituated to the apparatus the day before the start of the experiment. During the training, the rat (Male Sprague-Dawley (Harlan) weighing 250 to 350 g) was placed in the illuminated compartment facing away from the closed guillotine door for 1 minute before the door was raised. The latency for entering the darkened compartment was recorded. After the rat entered the darkened compartment, the door was closed and a 0.5 mA electric shock was administered for 3 seconds. […] The latency for entering the darkened compartment was recorded for up to 180 seconds, at which time the trial was terminated.
as §1

| SMILES | latency for entering the darkened compartment (retention test) |
| --- | --- |
| C[C@]12N[C@H](Cc3ccccc31)c1ccccc12 [MK-801] | markedly reduced this latency |
